From publication PMC7997579, “Synthetic Lethality in Pancreatic Cancer: Discovery of a New RAD51-BRCA2 Small Molecule Disruptor That Inhibits Homologous Recombination and Synergizes with Olaparib” (Journal of Medicinal Chemistry, 2020)
Read-outs that look alike come from different tables or passages of the source.

What was measured:
[1] = Solubility (as observed in cell culture media / stated); assay type: physicochemical; conditions: cell culture media
[2] = test system: homologous recombination in BxPC3 cells; experiment: Homologous recombination assay (two-plasmid recombination, real-time PCR); assay type: cell-based, human; conditions: BxPC3; one or two doses in the range of the ELISA EC50; NDD = not dose-dependent
Excerpt: (§1) Our working hypothesis is that compounds disrupting RAD51-BRCA2 interaction should affect HR repair and increase the efficacy of PARPi in treating breast, ovarian, and pancreatic cancer. For its clinical relevance, pancreatic adenocarcinoma was selected as our final model for cell-based experiments, and BxPC3 cells were selected for a straightforward comparison with the previously reported triazole derivatives.[30],[31] BxPC3 is derived from a human adenocarcinoma that expresses fully functional BRCA2.[38] As shown in Table 2 and according to the rationale of our hypothesis, our preliminary screening consisted of verifying the efficacy of compounds in inhibiting cell HR and/or in increasing the antiproliferative effect of olaparib. […] HR activity was assessed by evaluating the recombination rate between two transfected plasmids, using a commercially available assay. […] As for the emissucinic acid-containing compounds (4d, 12d, 18d, 20d–23d, 30d, 31d), one of the reasons for their lower potency in cells might be the general poor permeability, likely related to the ionizable acid moiety. […] We then characterized 35d in additional biophysical and cell-based experiments.
Homologous recombination (HR) was assessed by using a commercially available assay (Norgen). This assay is based on cell transfection with two plasmids that, upon cell entry, recombine. The efficiency of HR can be assessed by real-time PCR, using primer mixtures included in the assay kit. Different primer mixtures allow one to discriminate between the original plasmid backbones and their recombination product.
BxPC3 cells (2 × 10^5 per well) were seeded in a 24-well plate and allowed to adhere overnight. Co-transfection with the two plasmids was performed in Lipofectamine 2000 (Invitrogen) according to the manufacturer’s instructions. During transfection (5 h), cells were exposed to different doses of RAD51-BRCA2 disruptors, dissolved in RPMI in the presence of 0.6% DMSO. After washing with PBS, cells were harvested, and DNA was isolated using Illustra Tissue and Cell Genomic Prep Mini Spin kit (GE Healthcare). Sample concentration was measured using an ONDA Nano Genius photometer. The efficiency of HR was assessed by real-time PCR, using 25 ng of template, the primer mixtures included in the assay kit and following the protocol indicated by the manufacturer. Data analysis was based on the ΔΔCt method: [recombination product/backbone plasmids]^treated versus [recombination product/backbone plasmids]^control.

[3] = molecular target: T1, BRC4–RAD51 interaction (Homo sapiens, UniProt Q06609); experiment: Competitive biochemical ELISA assay (biotinylated BRC4 peptide vs RAD51); assay type: binding
T1 construct: purchased Creative Biomart (RAD51); Life Technologies (BRC4 peptide)
T1 sequence (Q06609 1-339): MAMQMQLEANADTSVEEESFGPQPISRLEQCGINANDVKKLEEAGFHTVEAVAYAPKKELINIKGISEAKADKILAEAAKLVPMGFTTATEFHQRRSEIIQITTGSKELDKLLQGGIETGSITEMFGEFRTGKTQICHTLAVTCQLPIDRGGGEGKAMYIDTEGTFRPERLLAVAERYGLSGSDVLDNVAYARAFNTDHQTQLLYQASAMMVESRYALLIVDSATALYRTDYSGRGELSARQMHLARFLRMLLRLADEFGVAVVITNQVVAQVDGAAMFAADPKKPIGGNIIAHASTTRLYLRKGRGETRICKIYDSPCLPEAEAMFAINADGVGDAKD
Description: To investigate the mechanism of action of the new dihydroquinolone pyrazoline derivatives, different biological assays were performed. As a primary screening, the ability of compounds 5d–57d to inhibit RAD51-BRCA2 interaction was investigated with a competitive biochemical ELISA assay against the parent compound 4d (Table 1). This assay is effective in evaluating the ability of new molecules to compete with BRC4 to bind to RAD51.[30] […] 18d–21d, 23d, 25d, 30d, and 31d were active at micromolar range, all very similar to the initial hit. […] The replacement of the aromatic ring A in combination with the substitution of the pyrazoline nitrogen with either propionyl or acetyl chain yielded compounds 33d–51d. […] As expected for PPI disruptors, the SARs of the new series of dihydroquinolone pyrazoline were rather complex to rationalize, with many cliffs and spikes that were difficult to understand. […] Accordingly, 4d, 12d, 18d, 20d–23d, 30d, 31d, 33d–36d, 39d, 45d, and 49d were submitted to cell-based study (Table 2).
Competitive ELISA screening assay using biotinylated BRC4 peptide to disrupt the BRC4–RAD51 interaction was performed by modifying the method described by Rajendra et al.[33] BRC4-biotinylated peptide (N-term biotin-[…] from Life Technologies) was used to coat 384-well plates (Nunc). After washing with PBS containing 0.05% Tween-20 (PBST) and blocking with the solution BSA 1% /PBST, overnight hybridization with human RAD51 protein (NP_002866 Creative Biomart, NY) was performed. Test compounds were added in dose response from 0.01 to 100 μM in triplicate with constant DMSO 1%. Antibody raised against RAD51 (Millipore) and HRP-secondary antibody staining to develop the 3,3′,5,5′-tetramethylbenzidine signal (Sigma) quenched with 1 M HCl was used as the assay readout. Colorimetric measure was read on a Victor5 (PerkinElmer) plate reader. BRC4 and Rad51 were included in the assay as positive control. Results were analyzed by using GraphPad software.

[4] = test system: BxPC3 cells; experiment: Cell viability assay (CellTiter-Glo), association with olaparib; assay type: cell-based, human; conditions: BxPC3; for olaparib association (increase of antiproliferative effect of olaparib): one or two doses in the range of the ELISA EC50, concentration not given
Excerpt: as §1
Cell viability was assessed with the CellTiter-Glo luminescent cell viability assay from Promega. For this experiment, 1 × 10^4 cells in 200 μL of culture medium were seeded into each well of a 96-multiwell white body plate and allowed to adhere overnight. After 72 h incubation in the presence of olaparib (10 μM) and the RAD51-BRCA2 disruptors alone or in combination, the plate was allowed to equilibrate at room temperature for 30 min and the CellTiter-Glo reactive was directly added to each well. The plate was kept on a shaker for 10 min to induce cell lysis, and its luminescence was measured with a Fluoroskan Ascent FL reader (Labsystems).

[5] = test system: homologous recombination in BxPC3 cells; parameters: method as in PMID 30660828; conditions: earlier triazole; cited from earlier work
[6] = test system: Capan-1 cells; experiment: Immunofluorescence of nuclear γ-H2AX foci (DNA damage); assay type: cell-based, human; conditions: Capan-1, 48 h, 10 μM olaparib alone
Description: To evaluate DNA damage through γH2AX nuclear foci, BXPC3 and Capan1 cells were seeded on glass coverslips in 6-well tissue culture plate (2 × 10^5 cells/well) and allowed to adhere overnight. After 48 h treatment with olaparib (10 μM) or 35d (20 μM) given alone or in combination, cultures growing on coverslips were fixed and treated as described above. For this experiment, the used antibodies were a rabbit polyclonal anti-γH2AX (Abcam, 1:1000 in 5% BSA/PBS) and a secondary anti-rabbit rhodamine-labeled (Novus Biologicals, 1:1000 in 1% BSA/PBS). For both experiments, images were acquired using a Nikon fluorescent microscope equipped with filters for FITC, TRITC, and DAPI. The percentage of cells bearing nuclear foci was estimated by two independent observers, by analyzing 100–250 cells for each treatment sample.

[7] = Table 2, compounds selected for cell-based study, read-out: EC50 ELISA
[8] = competition with BRC4 for RAD51, triplicate, ± standard deviation, NA = not active, racemic mixtures unless enantiomer named, read-out: EC50 (μM) on ELISA assay

| SMILES | solubility in cell culture media [1] | HR inhibition (in words) [2] | EC50 [3, 7] [µM] | EC50 [3, 8] [µM] | olaparib association (increase of antiproliferative effect of olaparib) [4] | HR inhibition [5] [%] | γ-H2AX labeling in nuclei [6] | olaparib association ([4]; at 20 μM) |
| --- | --- | --- | --- | --- | --- | --- | --- | --- |
| CCC(=O)N1N=C(c2c(-c3ccccc3)c3cc(Cl)ccc3[nH]c2=O)CC1c1ccc(Br)cc1 (stereo not drawn) [Compound 34d, 3-(5-(4-Bromophenyl)-1-propionyl-4,5-dihydro-1H-pyrazol-3-yl)-6-chloro-4-phenylquinolin-2(1H)-one] | poor solubility | HR inhibition = not present | 19 ± 1 | 19 ± 1 | – | – | – | – |
| CCC(=O)N1N=C(c2c(-c3ccccc3)c3cc(Cl)ccc3[nH]c2=O)CC1c1ccc(Cl)cc1 (stereo not drawn) [Compound 33d, 6-Chloro-3-(5-(4-chlorophenyl)-1-propionyl-4,5-dihydro-1H-pyrazol-3-yl)-4-phenylquinolin-2(1H)-one] | – | HR inhibition = not present | 8 ± 2 | 8 ± 2 | olaparib association = not present | – | – | – |
| O=C(CSc1nnc(Cn2c(=O)sc3ccccc32)n1CCCc1ccccc1)NC1CCCCC1 [Compound 3] | – | – | – | – | – | ≤ 40 | – | – |
| O=C(O)CCC(=O)N1N=C(c2c(-c3ccccc3)c3cc(Cl)ccc3[nH]c2=O)CC1c1ccc(Br)cc1 (stereo not drawn) [Compound 12d, 4-(5-(4-Bromophenyl)-3-(6-chloro-2-oxo-4-phenyl-1,2-dihydroquinolin-3-yl)-4,5-dihydro-1H-pyrazol-1-yl)-4-oxobutanoic Acid] | – | HR inhibition = not present | 16 ± 2 | 16 ± 2 | olaparib association = not present | – | – | – |
| O=C(c1cc(Cc2n[nH]c(=O)c3ccccc23)ccc1F)N1CCN(C(=O)C2CC2)CC1 [olaparib] | – | – | – | – | – | – | increased nuclear labeling | – |
| COc1ccc(-c2ccc(C3CC(c4c(-c5ccccc5)c5cc(Cl)ccc5[nH]c4=O)=NN3C(=O)CCC(=O)O)cc2)cc1 (stereo not drawn) [Compound 21d, 4-(3-(6-Chloro-2-oxo-4-phenyl-1,2-dihydroquinolin-3-yl)-5-(4′-methoxy-[1,1′-biphenyl]-4-yl)-4,5-dihydro-1H-pyrazol-1-yl)-4-oxobutanoic Acid] | poor solubility | – | 20 ± 4 | 20 ± 4 | – | – | – | – |
| CCn1cc2cc(-c3ccc(C4CC(c5c(-c6ccccc6)c6cc(Cl)ccc6[nH]c5=O)=NN4C(=O)CCC(=O)O)cc3)ccc2n1 (stereo not drawn) [Compound 31d, 4-(3-(6-Chloro-2-oxo-4-phenyl-1,2-dihydroquinolin-3-yl)-5-(4-(2-ethyl-2H-indazol-5-yl)phenyl)-4,5-dihydro-1H-pyrazol-1-yl)-4-oxobutanoic Acid] | – | HR inhibition = NDD ^b | 17 ± 4 | 17 ± 4 | – | – | – | olaparib association = present at 20 μM |
| CCn1ncc2cc(-c3ccc(C4CC(c5c(-c6ccccc6)c6cc(Cl)ccc6[nH]c5=O)=NN4C(=O)CCC(=O)O)cc3)ccc21 (stereo not drawn) [Compound 30d, 4-(3-(6-Chloro-2-oxo-4-phenyl-1,2-dihydroquinolin-3-yl)-5-(4-(1-ethyl-1H-indazol-5-yl)phenyl)-4,5-dihydro-1H-pyrazol-1-yl)-4-oxobutanoic Acid] | poor solubility | – | 15 ± 3 | 15 ± 3 | – | – | – | – |
